Laboratory results published in a melting point compilation (Tetko et al.; mined from patent text by program, amines drawn as free bases though some values may be those of a salt).

For COc1cccc2c(=O)n3nc(C(=O)n4ccnc4)cc3[nH]c12, which melting point is on record?
Its melting point is 295 to 300 °C.

Which melting point does the source give for CCOC(=O)c1ncn2c1CN(C)C(=O)c1cc([N+](=O)[O-])ccc1-2 here?
The melting point was 197 to 199 °C.

With CC1(C)CCC2=C(C1=O)C(c1ccc(F)c(Br)c1)C1=C(CCS1)N2 (stereo not drawn) as the compound, how does the melting point read?
The melting point was over 270 °C.

With CC(=O)Nc1ccc(-c2cccc(C3=NCC(C)(C)c4ccc5c(c43)CC(C)(C)O5)c2)cc1 as the compound, how does the melting point read?
Its melting point is 246 to 249 °C.

With COCCOc1cc2ncc(C#N)c(Cl)c2cc1OCc1ccccc1 as the compound, how does the melting point read?
The melting point was 142 to 145 °C.

With CS(=O)C1C=Nc2cc(Br)ccc2C1=O (stereo not drawn) as the compound, how does the melting point read?
The melting point was 255 to 256 °C.

With CS(=O)(=O)c1ccc(/C(=C\C2CCCCC2)C(=O)O)cc1C(F)(F)F as the compound, how does the melting point read?
Its melting point is 62 to 64 °C.

For O=C(O)CCC(=O)OCCn1ccnc1, which melting point is on record?
Its melting point is 108 to 110 °C.

Which melting point does the source give for CC(=O)Oc1ccc(-n2c(-c3ccccc3)cc3c2CCc2ccccc2-3)cc1C(=O)O here?
Its melting point is 194 to 196 °C.

With COc1c(F)cc2[nH]c(C)c(CC(=O)O)c2c1F as the compound, how does the melting point read?
The melting point was 176 to 178 °C.

For COc1ccc(-c2nnc(NC3CCN(Cc4ccccc4)CC3)c3cc(OC)cc(OC)c23)cc1, which melting point is on record?
Its melting point is 168 °C.

With Cc1c(NC(=O)c2ccc(OC[C@@H]3CCCO3)cc2)ccc2cc(CN[C@@H]3CCCC[C@H]3O)cnc12 as the compound, how does the melting point read?
The melting point was 142 to 143 °C.

With CNC(=O)CN(CCN(CCN(CC(=O)O)CC(=O)NC)CC(=O)O)CC(=O)O as the compound, how does the melting point read?
The melting point was 78 to 82 °C.

For COc1ccc(S(=O)(=O)C2(C(=O)O)CCN(Cc3ccc(F)cc3)CC2)cc1, which melting point is on record?
Its melting point is 154 °C.

With CCCc1cn(Cc2ccc(C(=O)OC)cc2OC)c2cc(C=C(C)C(=O)O)ccc12 as the compound, how does the melting point read?
The melting point was 167 to 169 °C.

For N#CCc1c(Br)csc1Br, which melting point is on record?
The melting point was 75.5 to 77 °C.

With CC(=O)N[C@H](Cc1ccc(C(=O)c2ccccc2)cc1)C(=O)O as the compound, how does the melting point read?
Its melting point is 186 to 187 °C.

For Cn1cc(Nc2ccc([N+](=O)[O-])cc2[N+](=O)[O-])cn1, which melting point is on record?
Its melting point is 149 °C.

For N#Cc1c(Cl)nc2cscc2c1Cl, which melting point is on record?
Its melting point is 228 °C.

Which melting point does the source give for COc1ccc(-c2cc3c(s2)c(=O)c(S(C)=O)cn3C)cc1 (stereo not drawn) here?
The melting point was 262 to 264 °C.

With CCOc1ccc(-c2ccc3c(c2)C=C(C(=O)OC)CCN3C=O)cc1F as the compound, how does the melting point read?
The melting point was 126 to 128 °C.

With CN(CC(=O)N[C@@H](CCC(N)=O)C(N)=O)C(=O)OCc1ccccc1 as the compound, how does the melting point read?
The melting point was 186 to 196 °C.

Which melting point does the source give for CC(=O)OCC1CC(n2c(Br)nc3cc(Cl)c(Cl)cc32)C(OC(C)=O)C1OC(C)=O (stereo not drawn) here?
The melting point was 156 to 159 °C.

With CC(=O)c1ccc(NS(C)(=O)=O)c(Sc2ccc(F)cc2F)c1 as the compound, how does the melting point read?
Its melting point is 114 to 117 °C.

For CCCCCCCCCCCCCCCC(=O)Oc1c(F)c(F)c(F)c(F)c1F, which melting point is on record?
The melting point was 42 to 44 °C.

For CS(=O)(=O)NNc1ccnc2c(NC(=O)c3c(Cl)cccc3Cl)cccc12, which melting point is on record?
The melting point was 156 to 164 °C.

For CC(CC(=O)O)C(=O)c1ccc(N2CCOCC2)c([N+](=O)[O-])c1 (stereo not drawn), which melting point is on record?
The melting point was 127 to 129 °C.

With COc1ccc2c(=O)n3cccc3oc2c1 as the compound, how does the melting point read?
Its melting point is 128 to 129 °C.

With O=C(CN1CCN(CCCC(c2ccc(F)cc2)c2ccc(F)cc2)C(C(=O)O)C1)Nc1c(Cl)cccc1Cl (stereo not drawn) as the compound, how does the melting point read?
Its melting point is 204 °C.

With COc1ccc(-c2nn(C3CCCC3)c3c(F)cccc23)cc1 as the compound, how does the melting point read?
The melting point was 70 to 71 °C.

For Cc1cc(-n2ccnc2)c2cccc(OCc3c(Cl)ccc(S(=O)(=O)N4CCC[C@H]4C(=O)NCC4CCN(Cc5ccccn5)CC4)c3Cl)c2n1, which melting point is on record?
Its melting point is 100 °C.

With CCOC(=O)/C=C/c1cc(-c2c(CC(=O)Nc3ccc(Cl)cc3C(F)(F)F)c(=O)oc3cc(Cl)c(C)cc23)ccc1F as the compound, how does the melting point read?
The melting point was 160 to 162 °C.

With C=Cc1cc(C)cc(C)c1C1=C(O)C2(CCN(OC)CC2)N(OC2CCCO2)C1=O (stereo not drawn) as the compound, how does the melting point read?
The melting point was 132 to 135 °C.

With CCc1nc(N)nc(NC(CC)COCc2ccc(F)cc2)n1 (stereo not drawn) as the compound, how does the melting point read?
The melting point was 96 °C.

For Cc1nc(-c2ccccc2C(F)(F)F)c2c(n1)N(c1ccc(C(C)C)cc1Br)CC(=O)N2, which melting point is on record?
Its melting point is 238 to 239 °C.

For N#Cc1[nH]c(-c2c(Cl)cc(C(F)(F)F)cc2Cl)nc1C(N)=O, which melting point is on record?
Its melting point is 254 to 255 °C.

For N#CCc1cnc(N)cn1, which melting point is on record?
The melting point was 132 to 134 °C.

For O=C(Nc1cccc(C(F)(F)F)c1)N1CCCCc2cc(O)ccc21, which melting point is on record?
The melting point was 172 to 173 °C.

For O=c1c2ccccc2nnn1CCCCl, which melting point is on record?
Its melting point is 69 °C.

Which melting point does the source give for CC(C)(C)[Si](C)(C)O[C@@H]1c2cc(Br)ccc2-c2ccc(Br)cc2[C@H]1O[Si](C)(C)C(C)(C)C (relative stereo) here?
Its melting point is 162 to 163 °C.

For CC(=O)NCC1CN(c2ccc(N3CCN(C(=O)COC(=O)CCN(C)C)CC3)c(F)c2)C(=O)O1 (stereo not drawn), which melting point is on record?
Its melting point is 136 to 137 °C.

With CN(C)C(=O)N1CCC(Oc2ccc(C(F)(F)F)cc2)(c2ccccc2)CC1 as the compound, how does the melting point read?
The melting point was 158 to 160 °C.

Which melting point does the source give for CCS(=O)(=O)c1ccc(I)cc1 here?
The melting point was 78 to 79 °C.

For CSC(=Nc1ccccc1)N(c1ccccc1)c1nc(C)cc(C)n1, which melting point is on record?
The melting point was 101 to 103 °C.

For CN1CC(CO)CC2(OCCCO)c3cccc4[nH]cc(c34)CC12 (stereo not drawn), which melting point is on record?
The melting point was 189 to 195 °C.

Which melting point does the source give for Cn1cnc2c1c(=O)n(CC(O)CN1CCN(C(c3ccc(F)cc3)c3ccc(F)cc3)CC1)c(=O)n2C (stereo not drawn) here?
The melting point was 138 to 140 °C.

With CN(C)Cc1c[nH]c2cc(Cl)ccc12 as the compound, how does the melting point read?
Its melting point is 130 to 133 °C.

Which melting point does the source give for CC(=C1SC(=O)NC1=O)c1ccc(OCCOc2c(-c3ccc(F)cc3)n(C)c3ccccc3c2=O)c(F)c1 here?
The melting point was 220 to 222 °C.

For O=C(NCCc1cccc2ccccc12)C1CC1, which melting point is on record?
Its melting point is 117 to 118 °C.

Which melting point does the source give for COc1cc2c(c3c1OC(C)(C)C3)C(c1cccc(Nc3ccccc3)c1)=NC(C)(C)C2 here?
Its melting point is 87 to 88 °C.

With O=C(O)C1=Cc2c(ccc3oc4ccccc4c23)OC1C(F)(F)F (stereo not drawn) as the compound, how does the melting point read?
Its melting point is 254 to 255 °C.

Which melting point does the source give for O=C(O)C1CCSc2ccc(Cl)cc21 (stereo not drawn) here?
The melting point was 139 to 150 °C.

For COC(=O)[C@H]1CC[C@H](n2ccn(-c3ccc(OCc4ccccc4)cc3)c2=O)CC1, which melting point is on record?
Its melting point is 183 to 185 °C.

For CCOC(=O)c1c(C)nn(C)c1CSC(=N)N, which melting point is on record?
The melting point was 175 to 180 °C.

Which melting point does the source give for CC(C)CC(NS(=O)(=O)c1ccc(Cl)cc1)C(=O)Nc1ccc(CC(=O)O)cc1 (racemic) here?
Its melting point is 208 to 209 °C.

For NNC(=O)c1cccc(Cc2c[nH]cn2)c1O, which melting point is on record?
The melting point was 190 °C.

Which melting point does the source give for Cc1cc(-c2cn(-c3cccc(OCCCl)c3)c3ncnc(N)c23)cc(C)c1OCc1ccccc1 here?
Its melting point is 188 to 190 °C.

For CC(C)(C)CC(C)(C)c1cc(Cc2cc(C(C)(C)CC(C)(C)C)cc(-n3nc4ccccc4n3)c2O)c(O)c(-n2nc3ccccc3n2)c1, which melting point is on record?
Its melting point is 198 °C.

With N#CC1=C(c2ccccc2)Nc2n[nH]cc2C1c1cccc(F)c1F (stereo not drawn) as the compound, how does the melting point read?
The melting point was 165 °C.

With O=C(Nc1cccc(C(F)(F)F)c1)NC1N=C(c2ccccc2F)c2ccccc2N(CC(=O)N2CC3CCC(CC3)C2)C1=O (racemic) as the compound, how does the melting point read?
The melting point was 226 to 227 °C.

With Cc1ccc(-c2nc3ccc(C(=O)O)cn3c2CN(C)C(=O)CC(C)C)cc1 as the compound, how does the melting point read?
Its melting point is 227 to 229 °C.

With CC1CCN(C2C3=CC(OC3=O)C3C(CC4(C)OC4C2OC(=O)c2ccccc2)OC(=O)C3C)CC1 (stereo not drawn) as the compound, how does the melting point read?
The melting point was 234 °C.

For O=C(O)c1csc(Nc2ccc(C(F)(F)F)cc2)n1, which melting point is on record?
Its melting point is 255 to 259 °C.

Which melting point does the source give for Cc1cc(CCCCCOc2ccc(C#N)cc2)on1 here?
Its melting point is 57 °C.

Which melting point does the source give for Cc1[nH]c(-c2ccccc2)nc1C=O here?
Its melting point is 102 to 115 °C.

Which melting point does the source give for O=c1[nH]cc(-c2cccc(Cl)c2)c2ncccc12 here?
Its melting point is 252 °C.

Which melting point does the source give for O=C(NCc1ccccc1)c1ccccc1-c1ccccc1CNS(=O)(=O)c1cccc(C(F)(F)F)c1 here?
Its melting point is 126 °C.

With N=C(N)c1cccc(Cn2ccc3ncn(Cc4ccc5ccc(C(=N)N)cc5c4)c3c2=O)c1 as the compound, how does the melting point read?
The melting point was over 300 °C.
